Test results as given in patent US20250230193A1, “CYCLIC COMPOUND HAVING SELECTIVE KRAS INHIBITORY EFFECT ON HRAS AND NRAS” (CHUGAI SEIYAKU KABUSHIKI KAISHA, priority 2022, published 2025).
*1 amine or outer side, *2 acyl side, *3 side chain or, on linkers, in order; H or OH if unused. Where a SMILES comes first, the peptide text is derived from it. Bridges are numbered along the chain shown (N, C = ends). [ ]: non-standard residue; d: D form. The star is where a group is joined. hPhe(3-Cl-4-CF3) = N[C@@H](CCc1ccc(C(F)(F)F)c(Cl)c1)C(=O)O; X18 = C=CCCN([C@@H](Cc1ccc(C(F)(F)F)cc1)C(=O)[*:2])[*:1]; NPrPhe(4-CF3) = CCCN[C@@H](Cc1ccc(C(F)(F)F)cc1)C(=O)O; NMeGly(cPent) = CN[C@H](C(=O)O)C1CCCC1; NMeD = CN[C@@H](CC(=O)O)C(=O)O; NMeL = CN[C@@H](CC(C)C)C(=O)O; Morpholide = C1CN(*)CCO1; Ac5c = NC1(C(=O)O)CCCC1; Aze = O=C(O)[C@@H]1CCN1; NEtG = CCNCC(=O)O; Sar = CNCC(=O)O

How the values were obtained:
[1] = target: GDP-bound HRAS wild-type protein (Homo sapiens, UniProt P01112); experiment: Binding to HRAS by surface plasmon resonance (SPR), Single Cycle Kinetics; conditions: for HRAS/KRAS (ratio of KD value with respect to HRAS to KD value with respect to KRAS) / HRAS/KRAS (ratio of KD value for HRAS to KD value for KRAS): GDP-bound HRAS wild-type vs GDP-bound KRAS wild-type
Chain of GDP-bound HRAS wild-type protein (P01112 whole entry): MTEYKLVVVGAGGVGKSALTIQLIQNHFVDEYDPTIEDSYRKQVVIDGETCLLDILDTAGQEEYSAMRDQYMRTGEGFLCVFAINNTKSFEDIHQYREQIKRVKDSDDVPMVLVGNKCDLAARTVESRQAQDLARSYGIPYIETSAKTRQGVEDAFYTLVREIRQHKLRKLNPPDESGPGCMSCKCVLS

[2] = target: GDP-bound NRAS wild-type protein (Homo sapiens, UniProt P01111); experiment: Binding to NRAS by surface plasmon resonance (SPR), Single Cycle Kinetics; conditions: for NRAS/KRAS (ratio of KD value with respect to NRAS to KD value with respect to KRAS) / NRAS/KRAS (ratio of KD value for NRAS to KD value for KRAS): GDP-bound NRAS wild-type vs GDP-bound KRAS wild-type
Chain of GDP-bound NRAS wild-type protein (P01111 whole entry): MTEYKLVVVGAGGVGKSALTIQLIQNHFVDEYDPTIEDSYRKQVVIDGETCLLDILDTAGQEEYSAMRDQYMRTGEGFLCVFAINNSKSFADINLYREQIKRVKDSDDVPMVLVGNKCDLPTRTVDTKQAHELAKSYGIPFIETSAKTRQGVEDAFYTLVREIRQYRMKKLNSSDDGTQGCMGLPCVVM

Q: CCCN1C(=O)[C@H](C2CCCC2)N(C)C(=O)C2(CCC2)NC(=O)[C@@H]2C[C@@H](OCC)CN2C(=O)[C@H](CCc2cc(F)c(C(F)(F)F)c(F)c2)NC(=O)CN(C)C(=O)[C@H](Cc2ccc(C(F)(F)F)cc2)N2CCCCC[C@@H](C2=O)N(C)C(=O)CN(C)C(=O)[C@H]([C@@H](C)CC)NC(=O)[C@H](CC(C)C)N(C)C(=O)C[C@H]1C(=O)N1CCOCC1 [PP0639] was tested. Which “HRAS/KRAS (ratio of KD value with respect to GDP-bound HRAS wild-type protein to KD value with respect to KRAS)” value ([1]; SPR) did it give?
A: The value was “B (a compound having 3 or more and less than 10 is denoted as B)”.

Q: What about the “NRAS/KRAS (ratio of KD value with respect to GDP-bound NRAS wild-type protein to KD value with respect to KRAS)” value ([2]; SPR) of the same compound?
A: The value was “B (a compound having 3 or more and less than 10 is denoted as B)”.

Q: How did the “HRAS/KRAS (ratio of KD value with respect to HRAS to KD value with respect to KRAS)” value ([1]; KD ratio, SPR) turn out when CCO[C@@H]1C[C@H]2C(=O)NC3(CCC3)C(=O)N(C)[C@@H](C3CCCC3)C(=O)N(C)[C@H](C(=O)N(C)C)CC(=O)N(C)[C@@H](CC)C(=O)N[C@@H]([C@@H](C)CC)C(=O)N(C)CC(=O)N(C)[C@H]3CCCCCN(C3=O)[C@@H](Cc3ccc4ccsc4c3)C(=O)N(C)CC(=O)N[C@@H](CCc3cc(F)c(C(F)(F)F)c(F)c3)C(=O)N2C1 [PP0910] was run?
A: The value was “B (a compound having 3 or more and less than 10 is denoted as B)”.

Q: What about the “NRAS/KRAS (ratio of KD value with respect to NRAS to KD value with respect to KRAS)” value ([2]; KD ratio, SPR) of the same compound?
A: The value was “B (a compound having 3 or more and less than 10 is denoted as B)”.

Q: CC[C@H](C)[C@@H]1NC(=O)[C@H](CC2CCC2)N(C)C(=O)C[C@@H](C(=O)N(C)C)N(C)C(=O)[C@H](C2CCCC2)N(C)C(=O)C2(CCC2)N(C)C(=O)[C@@H]2CCCN2C(=O)[C@H](CCc2cc(F)c(C(F)(F)F)c(F)c2)NC(=O)CN(C)C(=O)[C@H](Cc2ccc(C)cc2)N2CC/C=C\C[C@@H](C2=O)N(C)C(=O)CN(C)C1=O [PP1802] was tested. Which “HRAS/KRAS (ratio of KD value for HRAS to KD value for KRAS)” value ([1]; KD ratio, SPR) did it give?
A: Its value is “B (a compound having 3 or more and less than 10 is denoted as B)”.

Q: And the “NRAS/KRAS (ratio of KD value for NRAS to KD value for KRAS)” value ([2]; KD ratio, SPR)?
A: Its value is “A (a compound having 10 or more and less than 20 is denoted as A)”.

Q: C=CCCN1C(=O)CN(C)C(=O)CN(C)C(=O)[C@H]([C@@H](C)CC)NC(=O)[C@H](CC(C)C)N(C)C(=O)C[C@@H](C(=O)N2CCOCC2)N(C)C(=O)[C@H](C2CCCC2)N(C)C(=O)C2(CCCC2)NC(=O)[C@@H]2CCCN2C(=O)[C@H](CCc2ccc(C(F)(F)F)c(Cl)c2)NC(=O)CN(C)C(=O)[C@@H]1Cc1ccc(C(F)(F)F)cc1 [PP0129] ([NMeL]I[Sar][Sar][X18][Sar][hPhe(3-Cl-4-CF3)]P[Ac5c][NMeGly(cPent)][NMeD]-Morpholide; lactam N-11) was tested. Which “HRAS/KRAS (ratio of KD for GDP-bound HRAS wild-type to KD for KRAS)” value ([1]; SPR) did it give?
A: Its value is “C (A compound having a KD ratio of 0.1 or more and less than 3 is denoted as C)”.

Q: And the “NRAS/KRAS (ratio of KD for GDP-bound NRAS wild-type to KD for KRAS)” value ([2]; SPR)?
A: The value was “B (a compound having 3 or more and less than 10 is denoted as B)”.

Q: Which results are given for CC[C@H](C)[C@@H]1NC(=O)[C@H](CC(C)C)N(C)C(=O)C[C@@H](C(=O)N2CCOCC2)N(C)C(=O)[C@H](C2CCCC2)N(C)C(=O)C2(CCC2)NC(=O)[C@@H]2C[C@@H](OCC3CCCC3)CN2C(=O)[C@H](CCc2cc(F)c(C(F)(F)F)c(F)c2)NC(=O)CN(C)C(=O)[C@H](Cc2ccc(C(F)(F)F)cc2)N2CCCC[C@@H](C2=O)N(C)C(=O)CN(C)C1=O [PP1001]?
A: HRAS/KRAS (ratio of KD value with respect to HRAS to KD value with respect to KRAS) ([1]; KD ratio, SPR): B (a compound having 3 or more and less than 10 is denoted as B); NRAS/KRAS (ratio of KD value with respect to NRAS to KD value with respect to KRAS) ([2]; KD ratio, SPR): B (a compound having 3 or more and less than 10 is denoted as B)

Q: For C#CC[C@H]1C(=O)N[C@@H]([C@@H](C)CC)C(=O)N(C)CC(=O)N(C)[C@H]2C/C=C\CCN(C2=O)[C@@H](Cc2ccc(C(F)(F)F)cc2)C(=O)N(C)CC(=O)N[C@@H](CCc2ccc(C(F)(F)F)c(OC)c2)C(=O)N2CC[C@H]2C(=O)NC2(CC(C)(C)C2)C(=O)N(C)[C@@H](C2CCCC2)C(=O)N(C)[C@H](C(=O)N(C)C)CC(=O)N1C [PP2909], which “HRAS/KRAS (ratio of KD value with respect to GDP-bound HRAS wild-type protein to KD value with respect to KRAS)” value ([1]; class symbols) is on record?
A: The value was “B (a compound having 3 or more and less than 10 is denoted as B)”.

Q: And the “NRAS/KRAS (ratio of KD value with respect to GDP-bound NRAS wild-type protein to KD value with respect to KRAS)” value ([2]; class symbols)?
A: Its value is “B (a compound having 3 or more and less than 10 is denoted as B)”.

Q: How did the “HRAS/KRAS (ratio of KD value with respect to GDP-bound HRAS wild-type protein to KD value with respect to KRAS)” value ([1]; class symbols) turn out when CC[C@H](C)[C@@H]1NC(=O)[C@H](CC2CC2)N(C)C(=O)C[C@@H](C(=O)N(C)CC)N(C)C(=O)[C@H](C2CCCC2)N(C)C(=O)C2(CC(C)(C)C2)NC(=O)[C@@H]2C[C@@H](F)CN2C(=O)[C@H](CCc2cc(F)c(C(F)(F)F)c(F)c2)NC(=O)CN(C)C(=O)[C@H](Cc2ccc(C)cc2)N2CC/C=C\C[C@@H](C2=O)N(C)C(=O)CN(C)C1=O [PP2802] was run?
A: Its value is “A (a compound having 10 or more and less than 20 is denoted as A)”.

Q: And the “NRAS/KRAS (ratio of KD value with respect to GDP-bound NRAS wild-type protein to KD value with respect to KRAS)” value ([2]; class symbols)?
A: Its value is “AA (a compound having 20 or more is denoted as AA)”.

Q: For CCO[C@@H]1C[C@H]2C(=O)N(C)C3(CCC3)C(=O)N(C)[C@@H](C3CCCC3)C(=O)N(C)[C@H](C(=O)N(C)C)CC(=O)N(C)[C@@H](CC)C(=O)N[C@@H]([C@@H](C)CC)C(=O)N3CCC[C@H]3C(=O)N(C)[C@H]3C/C=C\CCN(C3=O)[C@@H](Cc3ccc(C)cc3)C(=O)N(C)CC(=O)N[C@@H](CCc3cc(F)c(C(F)(F)F)c(F)c3)C(=O)N2C1 [PP1785], which “HRAS/KRAS (ratio of KD value for HRAS to KD value for KRAS)” value ([1]; KD ratio, SPR) is on record?
A: Its value is “A (a compound having 10 or more and less than 20 is denoted as A)”.

Q: And the “NRAS/KRAS (ratio of KD value for NRAS to KD value for KRAS)” value ([2]; KD ratio, SPR)?
A: Its value is “A (a compound having 10 or more and less than 20 is denoted as A)”.

Q: CCCN1C(=O)[C@@H]2CCN2C(=O)CN(CC)C(=O)[C@H]([C@@H](C)CC)NC(=O)[C@H](CC(C)C)N(C)C(=O)C[C@@H](C(=O)N2CCOCC2)N(C)C(=O)[C@H](C2CCCC2)N(C)C(=O)C2(CCCC2)NC(=O)[C@@H]2CCCN2C(=O)[C@H](CCc2ccc(C(F)(F)F)c(Cl)c2)NC(=O)CN(C)C(=O)[C@@H]1Cc1ccc(C(F)(F)F)cc1 [PP0259] ([NMeL]I[NEtG][Aze][NPrPhe(4-CF3)][Sar][hPhe(3-Cl-4-CF3)]P[Ac5c][NMeGly(cPent)][NMeD]-Morpholide; lactam N-11) was tested. Which “HRAS/KRAS (ratio of KD for GDP-bound HRAS wild-type to KD for KRAS)” value ([1]; SPR) did it give?
A: Its value is “B (a compound having 3 or more and less than 10 is denoted as B)”.

Q: And the “NRAS/KRAS (ratio of KD for GDP-bound NRAS wild-type to KD for KRAS)” value ([2]; SPR)?
A: The value was “C (A compound having a KD ratio of 0.1 or more and less than 3 is denoted as C)”.

Q: Which results are given for CCO[C@@H]1C[C@H]2C(=O)NC3(CC(C)(C)C3)C(=O)N(C)[C@@H](C3CCCC3)C(=O)N(C)[C@H](C(=O)N(C)CC)CC(=O)N(C)[C@@H](CC(F)F)C(=O)N[C@@H]([C@@H](C)CC)C(=O)N(C)CC(=O)N(C)[C@H]3C/C=C\CCN(C3=O)[C@@H](Cc3ccc(C(F)(F)F)cc3)C(=O)N(C)CC(=O)N[C@@H](CCc3ccc(C(F)(F)F)c(OC)c3)C(=O)N2C1 [PP1655]?
A: HRAS/KRAS (ratio of KD value for HRAS to KD value for KRAS) ([1]; KD ratio, SPR): A (a compound having 10 or more and less than 20 is denoted as A); NRAS/KRAS (ratio of KD value for NRAS to KD value for KRAS) ([2]; KD ratio, SPR): A (a compound having 10 or more and less than 20 is denoted as A)

Q: With C#CCN1CC(=O)N(C)[C@H]2C/C=C\CCN(C2=O)[C@@H](Cc2ccc(C)cc2)C(=O)N(C)CC(=O)N[C@@H](CCc2cc(F)c(C(F)(F)F)c(F)c2)C(=O)N2C[C@H](OCC)C[C@H]2C(=O)NC2(CC(C)(C)C2)C(=O)N(C)[C@@H](C2CCCC2)C(=O)N(C)[C@H](C(=O)N(C)C)CC(=O)N(C)[C@@H](CCC)C(=O)N[C@@H](CC(C)C)C1=O [PP2512] as the compound, how does the “HRAS/KRAS (ratio of KD value with respect to HRAS to KD value with respect to KRAS)” value ([1]; SPR) read?
A: Its value is “A (a compound having 10 or more and less than 20 is denoted as A)”.

Q: What about the “NRAS/KRAS (ratio of KD value with respect to NRAS to KD value with respect to KRAS)” value ([2]; SPR) of the same compound?
A: The value was “A (a compound having 10 or more and less than 20 is denoted as A)”.
